Results taken from ChEMBL document CHEMBL5120922, “Discovery, Optimization, and Evaluation of Potent and Selective PI3Kδ-γ Dual Inhibitors for the Treatment of B-cell Malignancies” (J Med Chem, 2022).
The source made the active and inactive calls. The calls are words filed in the database; no cut-off is given here.

Key:
[1] = Cmax in Sprague-Dawley rat at 2 mg/kg, iv measured upto 24 hrs by LC-MS/MS analysis; type: ADME, organism-based; parameters: time < 24 hrs, dose 2 mg/kg, route iv; conditions: in vivo
[2] = Oral bioavailability in Sprague-Dawley rat at 5 mg/kg measured upto 24 hrs by LC-MS/MS analysis; type: ADME, organism-based; conditions: in vivo
DOHH-2 [3] = experiment: Antiproliferative activity against human DOHH-2 cells assessed as cell growth inhibition measured after 72 hrs by MTT assay; type: functional, cell-based; conditions: DOHH-2, 72 h
SU-DHL-6 [4] = experiment: Induction of cell cycle arrest in human SU-DHL-6 cells assessed as accumulation of cells at G0/G1 phase at 0.5 uM incubated for 24 hrs by PI staining based FACScan flow cytometry analysis (reference value: 55.61 %); type: functional
Homo sapiens = species on record: Homo sapiens; experiment: Selectivity ratio of IC50 for N-terminal His6-tagged recombinant full length human PI3Kalpha expressed in baculovirus infected Sf21 insect cells to IC50 for N-terminal His6-tagged recombinant full length human PI3Kgamma expressed in baculovirus infected Sf21 insect cells
SU-DHL-6 [5] = experiment: Antiproliferative activity against human SU-DHL-6 cells assessed as cell growth inhibition measured after 72 hrs by MTT assay; type: functional, cell-based; conditions: SU-DHL-6, 72 h
[6] = Clearance in Sprague-Dawley rat at 5 mg/kg, po measured upto 24 hrs by LC-MS/MS analysis; type: ADME, organism-based; conditions: in vivo
DOHH-2 [7] = experiment: Induction of apoptosis in human DOHH-2 cells assessed as necrotic cells at 2 uM incubated for 48 hrs in presence of ibrutinib by annexin V-FITC and PI staining based flow cytometry analysis (Rvb =0.29 %); type: functional
SU-DHL-6 [8] = experiment: Antitumor activity against human SU-DHL-6 cells xenografted in NOD/SCID mouse assessed as reduction in tumor volume at 10 mg/kg, po measured every 2 days in presence of ibrutinib; type: functional, organism-based; conditions: time 2.0 day
DOHH-2 [9] = experiment: Induction of cell cycle arrest in human DOHH-2 cells assessed as accumulation of cells at S phase at 0.5 uM incubated for 24 hrs in presence of ibrutinib by PI staining based flow cytometry analysis (reference value: 55.11 %); type: functional
[10] = Tmax in Sprague-Dawley rat at 2 mg/kg, iv measured upto 24 hrs by LC-MS/MS analysis; type: ADME, organism-based; conditions: in vivo
[11] = AUC(0 to t) in Sprague-Dawley rat at 5 mg/kg, iv measured upto 24 hrs by LC-MS/MS analysis; type: ADME, organism-based; parameters: time < 24 hrs, dose 5 mg/kg, route iv; conditions: in vivo
[12] = Volume of distribution at steady state in Sprague-Dawley rat at 2 mg/kg, iv measured upto 24 hrs by LC-MS/MS analysis; type: ADME, organism-based; conditions: in vivo, read-out: Vdss
SU-DHL-6 [13] = experiment: Induction of cell cycle arrest in human SU-DHL-6 cells assessed as accumulation of cells at S phase at 0.5 uM incubated for 24 hrs in presence of ibrutinib by PI staining based flow cytometry analysis (reference value: 24.18 %); type: functional
[14] = Toxicity in human SU-DHL-6 cells xenografted in NOD/SCID mouse at 10 mg/kg, po measured every 2 days in presence of ibrutinib; type: organism-based; conditions: in vivo, 48 h, time 2 day
SU-DHL-6 [15] = experiment: Antitumor activity against human SU-DHL-6 cells xenografted in NOD/SCID mouse assessed as tumor growth inhibition at 10 mg/kg, po measured every 2 days in presence of ibrutinib; type: functional; conditions: SU-DHL-6, 48 h, time 2 day, read-out: TGI
[16] = Clearance in Sprague-Dawley rat at 5 mg/kg, iv measured upto 24 hrs by LC-MS/MS analysis; type: ADME, organism-based; conditions: in vivo
SU-DHL-6 [17] = experiment: Induction of apoptosis in human SU-DHL-6 cells assessed as early apoptotic cells at 1.5 uM incubated for 48 hrs in presence of ibrutinib by annexin V-FITC and PI staining based flow cytometry analysis (reference value: 8.81 %); type: functional
[18] = target: Phosphatidylinositol 4,5-bisphosphate 3-kinase catalytic subunit alpha isoform (Homo sapiens, UniProt P42336); experiment: Inhibition of N-terminal His6-tagged recombinant full length human PI3Kalpha expressed in baculovirus infected Sf21 insect cells incubated for 30 mins by HTRF assay
SU-DHL-6 [19] = experiment: Induction of cell cycle arrest in human SU-DHL-6 cells assessed as accumulation of cells at G2/M phase at 0.5 uM incubated for 24 hrs by PI staining based FACScan flow cytometry analysis (reference value: 20.21 %); type: functional
SU-DHL-6 [20] = experiment: Induction of apoptosis in human SU-DHL-6 cells assessed as necrotic cells at 1.5 uM incubated for 48 hrs in presence of ibrutinib by annexin V-FITC and PI staining based flow cytometry analysis (reference value: 0.32%); type: functional
[21] = target: T1, Phosphatidylinositol 4,5-bisphosphate 3-kinase catalytic subunit delta isoform (Homo sapiens, UniProt O00329); experiment: Inhibition of N-terminal His6-tagged recombinant full length human PI3Kdelta expressed in baculovirus infected Sf21 insect cells incubated for 30 mins by HTRF assay
T1 sequence (O00329 whole entry): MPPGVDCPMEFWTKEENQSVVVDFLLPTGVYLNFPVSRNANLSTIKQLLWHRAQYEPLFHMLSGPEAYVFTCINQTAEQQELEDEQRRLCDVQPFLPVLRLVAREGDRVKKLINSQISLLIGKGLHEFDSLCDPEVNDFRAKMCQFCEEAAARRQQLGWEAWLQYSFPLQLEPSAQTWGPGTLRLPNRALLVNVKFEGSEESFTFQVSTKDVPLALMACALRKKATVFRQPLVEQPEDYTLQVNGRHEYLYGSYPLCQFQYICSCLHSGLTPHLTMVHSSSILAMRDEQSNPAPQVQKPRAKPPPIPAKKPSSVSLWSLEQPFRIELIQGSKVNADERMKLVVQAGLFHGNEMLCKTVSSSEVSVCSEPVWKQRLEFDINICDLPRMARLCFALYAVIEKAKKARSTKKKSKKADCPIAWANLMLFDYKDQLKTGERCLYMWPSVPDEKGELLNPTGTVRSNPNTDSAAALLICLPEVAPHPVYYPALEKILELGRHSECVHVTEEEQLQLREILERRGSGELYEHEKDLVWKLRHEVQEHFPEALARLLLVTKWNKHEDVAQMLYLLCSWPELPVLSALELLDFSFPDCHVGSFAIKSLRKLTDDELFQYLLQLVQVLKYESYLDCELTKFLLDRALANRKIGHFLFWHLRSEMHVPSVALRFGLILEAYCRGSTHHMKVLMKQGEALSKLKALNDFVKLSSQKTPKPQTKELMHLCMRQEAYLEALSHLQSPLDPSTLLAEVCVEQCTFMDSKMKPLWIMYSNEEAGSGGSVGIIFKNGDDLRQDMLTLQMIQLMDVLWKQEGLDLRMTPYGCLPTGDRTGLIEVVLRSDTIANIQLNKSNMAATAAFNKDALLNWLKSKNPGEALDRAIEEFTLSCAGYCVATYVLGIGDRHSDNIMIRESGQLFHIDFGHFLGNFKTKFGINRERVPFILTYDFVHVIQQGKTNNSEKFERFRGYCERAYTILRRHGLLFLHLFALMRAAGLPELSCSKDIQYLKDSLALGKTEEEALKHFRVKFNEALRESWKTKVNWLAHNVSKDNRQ

DOHH-2 [22] = experiment: Induction of apoptosis in human DOHH-2 cells assessed as viable cells at 2 uM incubated for 48 hrs by annexin V-FITC and PI staining based flow cytometry analysis (reference value: 95.4 %); type: functional; conditions: read-out: Activity

Chain of Phosphatidylinositol 4,5-bisphosphate 3-kinase catalytic subunit alpha isoform (P42336 whole entry, canonical isoform): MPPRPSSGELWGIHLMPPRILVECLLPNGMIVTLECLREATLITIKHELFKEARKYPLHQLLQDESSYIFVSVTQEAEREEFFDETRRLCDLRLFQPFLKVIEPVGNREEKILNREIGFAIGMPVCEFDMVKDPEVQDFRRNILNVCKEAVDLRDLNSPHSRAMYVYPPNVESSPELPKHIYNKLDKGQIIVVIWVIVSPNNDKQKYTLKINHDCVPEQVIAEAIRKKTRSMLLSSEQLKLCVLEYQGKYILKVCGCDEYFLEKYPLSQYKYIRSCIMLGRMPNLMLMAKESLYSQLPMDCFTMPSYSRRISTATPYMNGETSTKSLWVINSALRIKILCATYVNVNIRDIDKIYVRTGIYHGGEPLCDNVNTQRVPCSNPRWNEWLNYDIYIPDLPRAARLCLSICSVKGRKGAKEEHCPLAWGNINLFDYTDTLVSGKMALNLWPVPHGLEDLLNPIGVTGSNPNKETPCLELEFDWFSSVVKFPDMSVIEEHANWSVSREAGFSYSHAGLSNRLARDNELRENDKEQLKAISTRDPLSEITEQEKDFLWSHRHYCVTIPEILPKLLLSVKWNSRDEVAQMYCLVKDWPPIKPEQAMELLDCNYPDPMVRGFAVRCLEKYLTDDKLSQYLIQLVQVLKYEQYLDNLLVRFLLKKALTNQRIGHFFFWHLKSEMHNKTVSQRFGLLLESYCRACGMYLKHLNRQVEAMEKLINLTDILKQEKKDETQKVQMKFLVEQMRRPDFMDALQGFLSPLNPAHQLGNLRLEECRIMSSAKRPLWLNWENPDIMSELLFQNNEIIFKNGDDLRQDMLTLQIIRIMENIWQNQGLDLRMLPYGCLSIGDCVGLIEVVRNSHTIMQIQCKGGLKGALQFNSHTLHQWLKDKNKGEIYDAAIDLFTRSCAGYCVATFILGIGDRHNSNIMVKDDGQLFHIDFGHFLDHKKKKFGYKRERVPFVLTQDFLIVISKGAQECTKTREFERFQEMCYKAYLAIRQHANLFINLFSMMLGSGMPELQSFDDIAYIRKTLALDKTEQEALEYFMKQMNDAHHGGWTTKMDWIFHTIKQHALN

Cmax [1]: 1520 ng/mL | bioavailability [2]: 126% | IC50 (SU-DHL-6 [5]): 60 nM | CL/F [6]: 13.2 mL/min/kg | Tmax [10]: 1.2 h | AUC(0-t) at 24 h [11]: 6810 ng·h/mL | Vd [12]: 1.66 L/kg | clearance [16]: 12.5 mL/min/kg | IC50 [18]: 794000 nM | IC50 [21]: 1000 nM
SMILES: C[C@H]1CC[C@@H](c2nc3cccc(Cl)c3c(=O)n2-c2cccnc2)N1c1nc(N)nc(N)c1C#N
IC50 (DOHH-2 [3]): 200 nM | Activity (SU-DHL-6 [4]): 63.84% | Ratio IC50 (Homo sapiens): 794 | Activity (DOHH-2 [7]): 1.88% | Activity (SU-DHL-6 [8]): Active | Activity (DOHH-2 [9]): 32.92% | Activity (SU-DHL-6 [13]): 15.65% | Activity [14]: Non-Toxic | inhibition in vivo at 10 mg/kg (SU-DHL-6 [15]): ≤ 81.4% | Activity (SU-DHL-6 [17]): 34.5% | Activity (SU-DHL-6 [19]): 10.01% | Activity (SU-DHL-6 [20]): 0.25% | viability at 2 µM (DOHH-2 [22]): 60.6%
